In patent US11286251B2, “Matrix metalloproteinase inhibitors and imaging agents, and methods using same” (Yale University, priority 2016, dated 2022):
Entries after “also recorded” stand apart in the source; their conditions may differ.

Columns and labels:
[1] = system: CaCl2-induced carotid aneurysm; assay: Quantitative autoradiography of carotid aneurysm, blocking study; format: in vivo, apoE−/− mice; details: autoradiography at 2 h
Description: Arterial aneurysm was induced by exposing the left common carotid artery of apolipoprotein E-deficient (apoE^−/−) mice to calcium chloride. Briefly, 4- to 6-wk-old female apoE^−/− mice (n=96; Jackson Laboratory) were fed high-cholesterol chow ad libitum. After 1 wk, the carotid arteries were exposed by blunt-end dissection under anesthesia. The left common carotid artery just below the carotid bifurcation was adventitially exposed to a 10% solution of CaCl2 for 20 min. The opposite carotid artery was exposed to normal saline and served as a control for imaging studies (Razavian, et al., 2010, J Nucl Med. 51(7):1107-15).
For autoradiography, the specimens were mounted on a board and placed in contact with to a reusable phosphor screen (MultiSensitive Phosphor Screen, PerkinElmer) along with standards of known activity. The screen was scanned in a phosphor imager system (Typhoon Trio, GE Healthcare Life Sciences) at a pixel size of 25×25 μm and images were analyzed using the Fiji software. Tracer uptake was quantified using a standard curve and expressed a % injected dose (ID)/pixel.
The tissues were placed on a phosphor screen (MultiSensitive Phosphor Screen, PerkinElmer) along with standards of known activity. […]

[2] = Radiochemical stability in mouse blood by radio-HPLC; format: in vitro ADME; details: in vitro incubation at 37° C. up to 5 hours
Description: Tracers were incubated in blood (200 μL) with gentle agitation (Thermo mixer, 1000 rpm) at 37° C. for 4 h. At 0, 2, and 4 h time points, 40 μL of blood sample were collected and centrifuged at 4° C. (3000 rpm, 20 min). 10 μL of the supernatant (plasma) were collected and diluted in methanol (90 μL). The sample was then vortexed for 30 s at room temperature and centrifuged at 4° C. (3000 rpm, 15 min). 50 μL of the supernatant were concentrated, filtered and analysed by radioHPLC or LC-MS.
(§1) Radiolabeling quality control was performed by reverse phase radio-HPLC analysis (HPLC system 2489, Waters) with a flow rate of 1 mL/min using an analytical column (JUPITER® 4 μm Proteo 90 Å, Phenomenex) with gradients of solvent A (0.16% ammonium formate in aqueous solution) and solvent B (0.16% ammonium formate in 90% acetonitrile). The HPLC gradients were programmed as follows: 10% B for 2 min, 10-70% B in 5 min, 5 min 70% B and 70-90% B in 5 min. In vitro and in vivo stability of the tracer were analyzed by radio-HPLC following in vitro incubation in mouse blood at 37° C. for up to 5 hours, and from urine collected at 2 hours after tracer injection, respectively.

[3] = In vivo radiochemical stability, radio-HPLC of urine; set-up: species or system C57BL/6J mouse; details: urine collected 2 hours after intravenous injection
Description: as §1

[4] = system: suprarenal abdominal aorta (AAA); assay: microSPECT/CT imaging of AAA in angiotensin II-infused mice; format: in vivo, apoE−/− mice
Description: In addition, sixteen weeks-old male apoE^−/− (n=16) were infused with human angiotensin II (Ang II, 1000 ng/kg/min, Calbiochem), delivered by a subcutaneous osmotic minipump (Model 2004, Alzet) implanted under anesthesia (isoflurane 2%).
Animals were imaged using a dedicated high resolution small animal imaging system (X-SPECT, GammaMedica), using one mm low energy (for ^99mTc) pinhole collimators. The spatial resolution of this system for ^99mTc in tomographic images with a 1-mm pinhole collimator and 4 cm radius of rotation was 1.1 mm full-width half-maximum. Radiotracer (1 mCi for mice) was injected through an intravenous catheter. Anesthetized mice (with isoflurane) were placed in a fixed position under the camera. Three point sources of known activity (˜1 μCi) were placed in the field of view, but outside the body, to quantify tracer uptake and to verify the accuracy of image fusions. […]
After completion of microSPECT images CT imaging was performed (energy: 75 kV/280 μA, matrix: 512×512) to identify anatomical structure. […] Images were analyzed using Xeleris Functional Imaging Workstation (General Electric, Waukesha, Wis.). […] Activities of each organ was expressed as % ID using the point sources. […]
RNA was isolated from aortic tissue using GenElute Mammalian Total RNA Miniprep Kit (Sigma-Aldrich) and reverse-transcribed using QuantiTect Reverse Transcription Kit (Qiagen). […]

[5] = Stability in saline / radiolabeling media by RP-HPLC; format: physicochemical; details: room temperature
Aqueous solubility = format: physicochemical
[6] = all tissues evaluated, but not the bile; 2 h
Description: To investigate biodistribution in apoE^−/− mice, animals at seven weeks after peri-adventitial application of CaCl2 or NaCl to carotid arteries were injected with 31±14 MBq (14±2 pg/kg) of ^99mTc-1, with (n=5) or without (n=6) pre-injection of an excess of the parent inhibitor 19 (23±8 ng/kg). Animals were kept under anesthesia for 60 min and blood samples were collected at various times post-injection. Tissue samples and body fluids were collected and weighed at 2 hours post-injection, and measured for their radioactivity by gamma-well counting (WIZARD2®, PerkinElmer). Data were expressed as percentage of injected dose (ID) per gram of tissue or mL of blood.
^99mTc-1 binding to carotid aneurysm and specificity in vivo were evaluated in apoE^−/− mice at seven weeks after peri-adventitial application of CaCl2 to left carotid arteries.

[7] = Partition coefficient between n-octanol and water or Tris buffer; format: physicochemical; details: for logD: coligands Tricine-TPPTS
Description: Matrix metalloproteinase-targeted imaging agents known in the art suffer from poor solubility of their precursors and have blood clearance times that make them ill-suited for practical application. The partition coefficient (Log D) values of ^99mTc-1 and ^99mTc-RP805 were determined based on their proportional distribution between n-octanol and water or Tris buffer at pH 7.4. […] Compared with ^99mTc-RP805 and its precursor, the increased hydrophilicity of ^99mTc-1 (and 1) can in one aspect be ascribed to the introduction of arginine residue.

[8] = Blood kinetics and biodistribution in C57BL/6J mice; details: mouse, in vivo; for blood pool activity: iv
Description: Biodistribution at 2 h post-injection (p.i.) and blood clearance were evaluated in C57Bl/6J mice injected with 16±5 MBq of ^99mTc-1 (n=6) or ^99mTc-RP805 (n=6). In vivo targeting to aneurysm and specificity of ^99mTc-1 was evaluated in high-fat fed apolipoprotein E-deficient mice, 4 weeks after carotid aneurysm induction through peri-adventitial application of CaCl2. The animals were injected with 31±14 MBq of ^99mTc-1 with (n=3) or without (n=4) pre-injection of non-labeled 1.

CC(C)C[C@H]1C(=O)N[C@H](C(=O)N[C@@H](CCCNC(=N)N)C(=O)NCCNC(=O)c2ccc(N[N]=[Tc]345([PH](c6cccc(S(=O)(=O)O)c6)(c6cccc(S(=O)(=O)O)c6)c6cccc(S(=O)(=O)O)c6)[O]CC(CO)(C[O]3)[N]4CC(=O)[O]5)nc2)Cc2ccc(cc2)OCCC[C@@H]1C(=O)NO [^99mTc-1]
decrease in aneurysm-to-aorta uptake ratio under blocking conditions [1]: 1.8 fold | decrease in carotid aneurysm tracer uptake on pre-injection of excess parent pan-MMP inhibitor ([1]; blocking vs no blocking): 4.6 fold | radiochemical stability in mouse blood [2]: high radiochemical stability; also recorded: good stability; also recorded: single peak; also recorded: radiochemically stable | in vivo radiochemical stability (urine) [3]: high radiochemical stability | left ventricle blood pool activity ([4]; AAA group): 0.14±0.10 cpv/MBq | left ventricle blood pool activity ([4]; low remodeling group): 0.12±0.08 cpv/MBq | stability in saline [5]: good stability | water solubility (in words) (Aqueous solubility): high water solubility | tissue uptake by gamma well counting on pre-injection of parent pan-MMP inhibitor [6]: significantly reduced | logD ([7]; n-octanol/Tris buffer, Octanol/Tris (pH = 7.4)): -4.4 ± 0.1 | logD ([7]; n-octanol/water, Octanol/water): -4 ± 0.1 | logP ([7]; n-octanol/water, read-out: Log P n-octanol/water): -4 ± 0.1 | hepatobiliary excretion: bile activity ([8]; 2 h): 1.5±0.3 % ID/g | tissue uptake in control aorta ([8]; 2 h): 6.0±1.4 % ID/g | blood pool activity ([8]; 1 h): 1.3±0.4 % ID/mL | blood pool activity ([8]; 2 h): 1.0±0.4 % ID/mL
